# In patent publication US10206894B2, “Compounds for use in treatment of mucositis” (priority 2011, dated 2019):
# Like-named read-outs stand apart in the source and are kept apart here.
# Legend:
# [1] = test system: radiation-induced oral mucositis, left buccal cheek pouch; assay type: in vivo; conditions: for mean daily mucositis scores vs untreated control (Mann-Whitney Rank-sum), efficacy: topical three times per day
# Excerpt: In the irradiated hamster cheek pouch model of oral mucositis, the hamster cheek pouch is everted and irradiated to produce a localized mucositis. The progression and resolution of mucositis in the hamster model is very similar to that observed in the human condition and the model has been validated clinically with respect to dosing schedules of therapeutic agents (Murphy et al., Clin. Cancer Res., 2008, 14, 4292-4297; Alvarez et al., Clin. Cancer Res., 2003, 9, 3454-3461; and Schuster et al., J. Clin. Oncol., 2006, 24, 6537). Briefly, on day 0, all animals were given an acute radiation dose directed to their left buccal cheek pouch. Test articles were applied topically to the left pouch three times per day from day 0 to day 20 and mucositis was evaluated clinically starting on day 6, and continued on alternate days until […]. Study endpoints were mucositis score, weight change and survival. Mucositis was scored visually by comparison to a validated photographic scale. The scale ranges from 0 for normal, to 5 for severe ulceration. The clinical mucositis score of 3 in hamsters indicates the presence of an ulcer. In terms of the syndrome, it is believed that the dose-limiting chemotherapeutic- or radiation-induced pain is associated with frank ulceration; therefore a compound that prevents ulceration in the model might have utility in the clinical setting.
# To evaluate mucositis severity, animals were anesthetized with an inhalation anesthetic, and the left cheek pouch everted. Mucositis was scored visually by comparison to a validated photographic scale. The scale ranges from 0 for normal, to 5 for severe ulceration. In descriptive terms, this scale is defined as follows: […]
# A score of 1-2 is considered to represent a mild stage of injury, whereas a score of 3-5 is considered to indicate moderate to severe mucositis. In terms of the syndrome, it is believed that the dose-limiting chemotherapeutic- or radiation-induced pain is associated with frank ulceration; therefore a compound that prevents ulceration in the model might have utility in the clinical setting. In the hamster model, a clinical mucositis score of 3 indicates the presence of an ulcer and the duration of scores of 3 or greater is used as a primary measurement of efficacy in mucositis treatment. Ulceration is the point in the development of mucositis where the physical integrity of the oral mucosa is breached. In the clinic, a patient presenting with severe oral ulcerations may require hospitalization for analgesic, narcotic and/or antibiotic therapies or fluid support.
# On day 0, all animals were given an acute radiation dose directed to their left buccal cheek pouch. This was accomplished by anesthetizing the animals and everting the left buccal pouch, while protecting the rest of the animals with a lead shield. Test agents were applied topically to the left buccal pouch three times per day from day 0 to day 20. Mucositis was evaluated clinically starting on day 6, and continued on alternate days until day 28. Study endpoints were mucositis score, weight change and survival. Mucositis was scored visually by comparison to a validated photographic scale. No treatment-related deaths were recorded throughout the study. The mean daily percent weight gains were similar in all groups and there were no apparent toxicities in any of the test agent treatment groups. Differences between the ulcerative severity in controls and the treated groups were assessed in two ways. First, mean daily mucositis scores for each group at each time-point were compared with the untreated control group using the Mann-Whitney Rank-sum analysis. […] At 0.3 mg/ml, efficacy was partial early in the treatment period.
# Alternately, ulcerative severity differences between control and treatment groups were assessed by the comparison of the number of days with an ulcer (i.e., a score of 3 or higher) using a chi-squared (χ2) test.
# [2] = test system: FaDu human head and neck cancer xenograft; test: Tumor growth and response to therapy in FaDu xenograft; assay type: in vivo, nude mice (nu/nu); conditions: for mice euthanized for tumor volume in excess of 1500 mm^3: vehicle groups 43.3%; for survival at Day 29: vehicle groups 26.7%; for mice euthanized for tumor ulceration: vehicle groups 30%
# Method: Ninety (90) male nude mice (nu/nu) were divided into nine (9) groups of ten […]) mice per group. To ensure that a sufficient number of tumor-bearing animals were available for this study, a total of 100 mice were inoculated s.c. in the flank with 1×10^6 FaDu cells. FaDu (HTB-43) human head and neck cancer cells were obtained from ATCC. These cells were grown in EMEM medium supplemented with 10% Fetal Calf Serum (FCS), 1% penicillin and streptomycin, and 2 mM L-Glutamine. […] The flask was incubated at 37° C. until cells detached. Cells were then sub-cultured at a ratio of 1:3. […] Tumors were measured once every two days with micro-calipers, and tumor volume was calculated as (length×width×width)/2. Where animals were euthanized for tumor volume exceeding the maximum permissible by IACUC rules (1500 mm^3) or tumor ulceration, the last measurement was carried forward in calculations of mean tumor volume.
# All animals were weighed every day and their survival recorded, to assess possible differences in animal weight among treatment groups as an indication of possible toxicity resulting from the treatments. […] Any animals whose tumor grew to over 1500 mm^3 were also euthanized.
# Further analysis of the tumor volume data was performed by calculating the mean area under the curve (AUC) for the tumor volume for each animal and comparing the groups using an ANOVA on ranks test. Due to the impact of animals euthanized for tumor ulceration or volume in excess of 1500 mm^3, this analysis was performed on data to Day 15 as well as on the full data set to Day 29.
smiles,measurement,setting,value
N=C(N)NCCCCC(=O)Nc1cc(C(F)(F)F)cc(NC(=O)c2cc(C(=O)Nc3cc(C(F)(F)F)cc(NC(=O)CCCCNC(=N)N)c3OC3CCNC3)ncn2)c1OC1CCNC1 (centres unmarked) [Compound X],"mean daily mucositis scores vs untreated control (Mann-Whitney Rank-sum), efficacy","[1]; 0.3 mg/ml, early in the treatment period",partial
same,"mean daily mucositis scores vs untreated control (Mann-Whitney Rank-sum), efficacy","[1]; 1, 3 and 10 mg/ml groups, by Day 12 through Day 28",robust efficacy
same,"mucositis scores, number of days with an ulcer (score of 3 or higher), chi-squared test vs control","[1]; 1, 3 and 10 mg/ml/dose, p<0.001",statistically significant improvements
same,treatment days with a clinical score ≥3,"[1]; 1, 3 and 10 mg/ml/dose, vehicle control 42.7%",< 5%
same,% reduction of animal days with OM scores ≥ 3,[1]; Acute Radiation,90.6%-95.3%
same,impact of Kleptose on the response (mucositis scores),[1]; Kleptose in the vehicle or with 1 mg/kg Compound X,did not significantly impact the response
same,daily mean mucositis scores and number of days animals exhibited ulceration,"[1]; acute radiation model, oral rinse 3 times daily, 28 day treatment regimen",significantly reduced
same,"adverse findings in weight gain, general behavior in the home cage, or clinical signs","[1]; hamster, in vivo",no adverse findings
same,mean tumor volume,"[2]; 0.06 mg/kg, Day 1",102 mm^3
same,mean tumor volume,"[2]; 0.06 mg/kg, Day 15",904 mm^3
same,mean tumor volume,"[2]; 0.06 mg/kg, Day 27 when final animal in group was euthanized",2234 mm^3
same,mean tumor volume,"[2]; 0.3 mg/kg, Day 1",96 mm^3
same,mean tumor volume,"[2]; 0.3 mg/kg, Day 15",869 mm^3
same,mean tumor volume,"[2]; 0.3 mg/kg, end of the study",1002 mm^3
same,mean tumor volume,"[2]; cisplatin plus Compound X 0.06 mg/kg, Day 1",100 mm^3
same,mean tumor volume,"[2]; cisplatin plus Compound X 0.06 mg/kg, Day 15",518 mm^3
same,mean tumor volume,"[2]; cisplatin plus Compound X 0.06 mg/kg, end of the study",338 mm^3
same,mean tumor volume,"[2]; cisplatin plus Compound X 0.3 mg/kg, Day 1",104 mm^3
same,mean tumor volume,"[2]; cisplatin plus Compound X 0.3 mg/kg, Day 15",564 mm^3
same,mean tumor volume,"[2]; cisplatin plus Compound X 0.3 mg/kg, end of the study",510 mm^3
same,"p, tumor volume AUC to Day 15 vs vehicle control group (ANOVA on ranks)",[2]; cisplatin plus Compound X at 0.06 mg/kg,0.001
same,"p, tumor volume AUC to Day 15 vs vehicle control group (ANOVA on ranks)",[2]; cisplatin plus Compound X at 0.3 mg/kg,0.002
same,mice euthanized for tumor volume in excess of 1500 mm^3,"[2]; groups treated with 0.06 mg/kg IP QD Days 0-28 (alone, with radiation or cisplatin)",46.7%
same,survival at Day 29,[2]; groups treated with 0.06 mg/kg,20%
same,mice euthanized for tumor ulceration,[2]; groups treated with 0.06 mg/kg,33.3%
same,mice euthanized for tumor volume in excess of 1500 mm^3,"[2]; groups treated with 0.3 mg/kg IP QD Days 0-28 (alone, with radiation or cisplatin)",40%
same,survival at Day 29,[2]; groups treated with 0.3 mg/kg,36.7%
same,mice euthanized for tumor ulceration,[2]; groups treated with 0.3 mg/kg,23.3%
same,mean tumor volume,"[2]; radiation plus 0.06 mg/kg, Day 1",96 mm^3
same,mean tumor volume,"[2]; radiation plus 0.06 mg/kg, Day 15",596 mm^3
same,mean tumor volume,"[2]; radiation plus 0.06 mg/kg, end of the study",1027 mm^3
same,mean tumor volume,"[2]; radiation plus 0.3 mg/kg, Day 1",108 mm^3
same,mean tumor volume,"[2]; radiation plus 0.3 mg/kg, Day 15",616 mm^3
same,mean tumor volume,"[2]; radiation plus 0.3 mg/kg, end of the study",1376 mm^3
same,"p, tumor volume AUC to Day 15 vs vehicle control group (ANOVA on ranks)",[2]; radiation plus Compound X at 0.3 mg/kg,0.017
